This test concerns 5-HIAA release in the rat prefrontal cortex. As to the kind of experiment: Microdialysis: 5-HIAA release in prefrontal cortex after I.P. administration. The test is classed as in vivo. The note with it: for 5-HIAA release, MEAN / 5-HIAA release, individual animals: 0.3 mg/kg I.P.; for 5-HIAA release, MEAN: n = 8; for 5-HIAA release, individual animals: one column per animal R#11,12,18,23,29,30,17,24, hydrochloride; for levels of 5-HIAA compared to the citalopram treated group (significant): SON-117 0.1 mg/kg. On the procedure: The aim of the study was to evaluate, using microdialysis, the effects of an intraperitoneal (I.P.) administration in rats of three different doses of SON-117 on dopamine and its metabolites, serotonin and its metabolite (5-HIAA), and norepinephrine levels in prefrontal cortex.
Thirty-two adult male Wistar rats were used for the whole study (4 groups of eight animals planned for the study, Table 1).
Surgery was performed on rats weighing about 300 g at the beginning of the experiments. Rats were anaesthetized with Ketamine (50 mg/kg) & Xylazine (15 mg/kg) by intramuscular administration. The animals were placed in a stereotaxic apparatus in the flat-skull position at a constant setting of −3.3 mm between ear bars and the incisor bar. The animals were treated with a local anesthesic (xylocaine 1%, Astra Zeneca) and an analgesic (Temgesic, from Schering Plough, 0.05 mg/kg, s.c.). A rostrocaudal midline incision was made with a lancet to expose the dorsal skull surface. The “stereotaxic zero” was defined by the Bregma in accordance with Paxinos and Watson's atlas (1986). A hole was drilled in the skull with a drill and the meninges were pierced with a sterile needle to implant a CMA12 guide cannula which later received the dialysis probe.
Coordinates used for implanting guide cannula in prefrontal cortex from Bregma were anteroposterior 3.7 mm, mediolateral 0.8 mm, and dorsoventral −2 mm (top of the probe was at −5 mm). The guide cannula was fixed to the skull with two stainless steel screws (1.88 mm outside diameter) anchored. An application of dental cement was added. A plastic collar allowed each animal to be tethered to a Swivel assembly of the CMA 120 awake animal system. Following surgery, rats were kept in individual cages and allowed to recover for a minimum of 3-5 days before the experimentation. The rats were handled and put in plastic bowl for 10 min at least every day to habituate the animals to their new environment for the dialysis. An I.P. administration with saline was also performed every day.
Dialysis probes (CMA12/3 mm, membrane, 20 kD cut-off, Carnegie Medicine, Stockholm, Sweden), were carefully washed before inserting into the guide cannula. The wash was performed with the artificial cerebrospinal fluid (aCSF) medium (NaCl 147 mM, KCl 2.7 mM, CaCl2 1.2 mM, MgCl2 0.85 mM) at room temperature. The dialysis system was then equilibrated at 20° C. at a perfusion rate of 1 μl/min with a Carnegie pump (CMA100). All catheters (FEP tubing, internal volume of 1.2 μl/10 cm, and tubing adaptors) used for microdialysis were treated in the same conditions.
The probes duly prepared were inserted into the guide cannula and the CMA120 Swivel assembly secured to the animal using a plastic collar. Flow through the dialysis probe with aCSF was maintained at a rate of 1 μl/min during the whole experimentation. The first four fractions (corresponding to 2 hours) were discarded to avoid the effects of parenchymal disturbance and to ensure that an approximate steady-state level was reached. Fractions were then collected over a period of 8.5 h during which time the animals remained quiet. The dialysates were automatically collected with an autosampler (microfraction collector CMA 140, Carnegie Medicin) and stored at −80° C. until analysis. […] Perfusion was then maintained for 7 hours with aCSF. The dialysates (30 μl) were collected into 300 μl vials, transferred into dry ice and then kept frozen (−80° C.) until analysis. Frozen samples were shipped to a partner for analysis. At the end of the microdialysis study, a PBS with colored ink was perfused through the probe in order to visualize the dialyzed area.
Catecholamine assay: Concentrations of dopamine, DOPAC, HVA, 5-HIAA, 5-HT, and norepinephrin were determined for each sample by HPLC coupled with electrochemical detection.

Several values for one entry are separate records, joined by “and”; a condition that tells them apart may be missing. Equal entries are not always repeated. Structures can show the parent of a compound that is named as a salt.

As to `Cc1nnc(-c2cc3c(OC[C@@H](O)CN4CCC(c5ccc(Cl)c(Cl)c5)CC4)cccc3o2)o1` [SON-117, (S)-1-(4-(3,4-dichlorophenyl)piperidino)-3-(2-(5-methyl-1,3,4-oxadiazol-2-yl)benzo(b)furan-4-yloxy)-2-propanol hydrochloride], the “5-HIAA release, MEAN” value (T3 h 30-T4 h) is given as 86.84 % of respective basal; the “5-HIAA release, MEAN” value (T3 h-T3 h 30) is 85.23 % of respective basal; the “5-HIAA release, MEAN” value (T4 h 30-T5 h) is recorded as 79.56 % of respective basal; the “5-HIAA release, MEAN” value (T4 h-T4 h 30) was 83.02 % of respective basal; the “5-HIAA release, MEAN” value (T5 h 30-T6 h) is recorded as 76.13 % of respective basal; the “5-HIAA release, MEAN” value (T5 h-T5 h 30) was 70.00 % of respective basal. Moreover, the “5-HIAA release, MEAN” value is recorded as 77.53 % of respective basal (T6 h 30-T7 h); 75.56 % of respective basal (T6 h-T6 h 30); 101.34 % of respective basal (T-30 min-T0 (before administration)); 96.20 % of respective basal (T-1 h 30-T-1 h (before administration)); 102.47 % of respective basal (T-1 h-T-30 min (before administration)). Further, the “5-HIAA release, individual animals” value (T3 h 30-T4 h) was 84.27 % of respective basal and 78.82 % of respective basal and 113.26 % of respective basal and 50.70 % of respective basal and 79.10 % of respective basal and 97.98 % of respective basal and 103.77 % of respective basal; the “5-HIAA release, individual animals” value (T3 h-T3 h 30) was 91.97 % of respective basal and 87.81 % of respective basal and 101.16 % of respective basal and 49.70 % of respective basal and 76.51 % of respective basal and 101.56 % of respective basal and 87.92 % of respective basal; the “5-HIAA release, individual animals” value (T4 h 30-T5 h) was 106.09 % of respective basal and 92.34 % of respective basal and 55.38 % of respective basal and 93.00 % of respective basal and 34.98 % of respective basal and 60.78 % of respective basal and 97.49 % of respective basal and 96.40 % of respective basal; the “5-HIAA release, individual animals” value (T4 h-T4 h 30) is 101.39 % of respective basal and 87.58 % of respective basal and 68.33 % of respective basal and 105.89 % of respective basal and 46.22 % of respective basal and 58.28 % of respective basal and 100.16 % of respective basal and 96.30 % of respective basal; the “5-HIAA release, individual animals” value (T5 h 30-T6 h) is 99.18 % of respective basal and 83.12 % of respective basal and 47.00 % of respective basal and 91.59 % of respective basal and 31.98 % of respective basal and 58.90 % of respective basal and 95.96 % of respective basal and 101.31 % of respective basal; the “5-HIAA release, individual animals” value (T5 h-T5 h 30) was 36.17 % of respective basal and 102.81 % of respective basal and 51.02 % of respective basal and 88.56 % of respective basal and 33.58 % of respective basal and 69.56 % of respective basal and 91.58 % of respective basal and 86.71 % of respective basal. Moreover, the “5-HIAA release, individual animals” value reads like this: (T6 h 30-T7 h) 93.10 % of respective basal and 92.17 % of respective basal and 48.56 % of respective basal and 102.17 % of respective basal and 26.99 % of respective basal and 69.28 % of respective basal; (T6 h-T6 h 30) 95.37 % of respective basal and 79.54 % of respective basal and 45.32 % of respective basal and 101.94 % of respective basal and 31.32 % of respective basal and 69.73 % of respective basal and 87.93 % of respective basal and 93.33 % of respective basal. The “5-HIAA dialysate levels vs mean pre-administration value” (SON-117 0.1 mg/kg I.P.) is “no statistically significant differences”. For the same compound, the “levels of 5-HIAA compared to the citalopram treated group (significant)” value is given as “lower” (at 0.5 h) and “higher” (at 4.5 h, 5 h, 6.5 h). For the setting “SON-117 0.3 mg/kg IP, at 3.5 h and from 4.5 h to 7 h”, the “5-HIAA concentrations in prefrontal cortex, change” value was “significant and stable slight decrease”. For the setting “SON-117 0.3 mg/kg, in function of time”, the “5-HIAA, difference to the citalopram group” value is “no significant difference”.

Values taken from patent US20250109127A1, “METHODS OF USE OF PHENOXYPROPYLAMINE COMPOUNDS TO TREAT DEPRESSION” (Minerva Neurosciences, Inc., priority 2013, published 2025).
